# Laboratory results published in patent US11512053B2, “Arginine methyltransferase inhibitors and uses thereof” (priority 2013, dated 2022).
# Where two headings read alike, the source gives them in different places.
# Target: full-length human PRMT6 (Flag- and His-tagged) (Homo sapiens, UniProt Q96LA8)
# Assay: PRMT6 Biochemical Assay (3H-SAM Flashplate, peptide substrate)
# Description: General Materials. S-adenosylmethionine (SAM), S-adenosylhomocysteine (SAH), bicine, Tween20, dimethylsulfoxide (DMSO), bovine skin gelatin (BSG), sodium butyrate and Tris(2-carboxyethyl)phosphine hydrochloride solution (TCEP) were purchased from Sigma-Aldrich at the highest level of purity possible. ^3H-SAM was purchase from American Radiolabeled Chemicals with a specific activity of 80 Ci/mmol. 384-well streptavidin Flashplates were purchased from PerkinElmer.
# Substrates. Peptide representative of human histone H4 residues 36-50 was synthesized with an N-terminal linker-affinity tag motif and a C-terminal amide cap by 21st Century Biochemicals. The peptide was purified by high-performance liquid chromatography (HPLC) to greater than 95% purity and confirmed by liquid chromatography mass spectrometry (LC-MS). The sequence was Biot-Ahx-[…]-amide and contained a monomethylated lysine at position 44 (SEQ ID NO.:5).
# Molecular Biology: Full-length human PRMT6 (NM_018137.2) transcript clone was amplified from an HEK 293 cDNA library, incorporating a flanking 5′ sequence encoding a FLAG tag ([…]) (SEQ ID NO.:6) fused directly to Ser 2 of PRMT6 and a 3′ sequence encoding a hexa His sequence (HHHHHH) (SEQ ID NO.:17) fused directly to Asp 375. The amplified gene was subcloned into pFastBacMam (Viva Biotech).
# Protein Expression. Recombinant baculovirus were generated according to Bac-to-Bac kit instructions (Life Technologies). […] Infections were carried out at 37° C. for 48 hours, harvested by centrifugation, and stored at −80° C. for purification.
# Protein Purification. […] Column was washed with 20 mM imidazole in the same buffer and Flag-PRMT6-His was eluted with 150 mM imidazole. Pooled fractions were dialysed against buffer N^1-A and further purified by anti-flag M2 affinity chromatography. Flag-PRMT6-His was eluted with 200 ug/ml FLAG peptide in the same buffer. Pooled fractions were dialysed in 20 mM Tris, 150 mM NaCl, 10% glycerol and 5 mM β-mercaptoethanol, pH 7.8. The purity of recovered protein was 95%.
# General Procedure for PRMT6 Enzyme Assays on Peptide Substrates. The assays were all performed in a buffer consisting of 20 mM Bicine (pH=7.6), 1 mM TCEP, 0.005% BSG, and 0.002% Tween 20, prepared on the day of use. Compounds in 100% DMSO (1 ul) were spotted into a polypropylene 384-well V-bottom plates (Greiner) using a Platemate Plus outfitted with a 384-channel head (Thermo Scientific). DMSO (1 ul) was added to Columns 11, 12, 23, 24, rows A-H for the maximum signal control and 1 ul of SAH, a known product and inhibitor of PRMT6, was added to columns 11, 12, 23, 24, rows I-P for the minimum signal control. A cocktail (40 ul) containing the PRMT6 enzyme was added by Multidrop Combi (Thermo-Fisher). The compounds were allowed to incubate with PRMT6 for 30 min at room temperature, then a cocktail (10 ul) containing SAM and peptide was added to initiate the reaction (final volume=51 ul). The final concentrations of the components were as follows: PRMT6 was 1 nM, ^3H-SAM was 200 nM, non-radiolabeled SAM was 250 nM, peptide was 75 nM, SAH in the minimum signal control wells was 1 mM, and the DMSO concentration was 2%. The assays were stopped by the addition of non-radiolabeled SAM (10 ul) to a final concentration of 400 uM, which dilutes the ^3H-SAM to a level where its incorporation into the peptide substrate is no longer detectable. 50 ul of the reaction in the 384-well polypropylene plate was then transferred to a 384-well Flashplate and the biotinylated peptides were allowed to bind to the streptavidin surface for at least 1 hour before being washed once with 0.1% Tween20 in a Biotek ELx405 plate washer. The plates were then read in a PerkinElmer TopCount plate reader to measure the quantity of ^3H-labeled peptide bound to the Flashplate surface, measured as disintegrations per minute (dpm) or alternatively, referred to as counts per minute (cpm). […]
# [1] = read-out: Biochemical IC50 PRMT6
# [2] = single experiment or average of multiple experiments, read-out: Biochemical IC50 PRMT6
# Chain of full-length human PRMT6 (Flag- and His-tagged) (Q96LA8 with tags, fused parts or gaps): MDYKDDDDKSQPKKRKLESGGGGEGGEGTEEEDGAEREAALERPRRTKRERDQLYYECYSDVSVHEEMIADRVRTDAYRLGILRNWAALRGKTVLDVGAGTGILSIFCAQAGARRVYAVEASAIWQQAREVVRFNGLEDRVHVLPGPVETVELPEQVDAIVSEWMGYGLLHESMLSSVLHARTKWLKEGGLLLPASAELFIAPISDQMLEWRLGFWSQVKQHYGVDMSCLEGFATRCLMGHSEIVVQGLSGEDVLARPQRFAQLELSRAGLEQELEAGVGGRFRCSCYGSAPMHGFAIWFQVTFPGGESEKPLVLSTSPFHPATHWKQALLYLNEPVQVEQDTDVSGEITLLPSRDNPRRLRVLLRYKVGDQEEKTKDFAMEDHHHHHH
SMILES,IC50 [1],IC50 [2],IC50 (Biochemical IC50 PRMT6),"IC50 (Biochemical IC50 PRMT6, single experiment or average of multiple experiments)"
CNCCN(C)Cc1c[nH]nc1C1CCC(=O)N(Cc2ccccc2)C1 (stereo not drawn) [Compound 115],< 0.1 µM,0.0627 µM,,
CCC(=O)N(CC1CCOCC1)[C@H]1CC[C@@H](c2n[nH]cc2CN(C)CCNC)CC1 [Compound 108],0.101 to 1 µM,0.326 µM,,
CNCCN(C)Cc1c[nH]nc1C1CCC2(CC1)CCN(CC(C)C)C2=O (stereo not drawn) [Compound 164],< 0.1 µM,0.0708 µM,,
CCN1C(=O)N(C)CC12CCC(c1n[nH]cc1CN(C)CCNC)CC2 (stereo not drawn) [Compound 162],< 0.1 µM,0.061 µM,,
CNCCN(C)Cc1c[nH]nc1[C@H]1CC[C@]2(CCOC2)CC1 [Compound 142],< 0.1 µM,0.0199 µM,,
CNCCN(C)Cc1c[nH]nc1C1CCC2(CCCCO2)CC1 (stereo not drawn) [Compound 137],< 0.1 µM,0.0233 µM,,
CNCCN(C)Cc1c[nH]nc1C1CCCC(COCCC(O)CO)C1 (stereo not drawn) [Compound 113],< 0.1 µM,0.0669 µM,,
CNCCN(C)Cc1c[nH]nc1[C@H]1CC[C@]2(CCC(C)(C)O2)CC1 [Compound 104],< 0.1 µM,0.0405 µM,,
CC[C@H]1CC[C@H](c2n[nH]cc2CN(C)CCNC)CC1 [Compound 148],< 0.1 µM,0.0081 µM,,
CNCCN(C)Cc1c[nH]nc1C1CCC2(CC1)CN(CC(C)C)C(=O)N2C (stereo not drawn) [Compound 145],< 0.1 µM,0.038 µM,,
"CNCCN(C)Cc1c[nH]nc1C1CCC(C)(C)C(O)C1 (stereo not drawn) [Compound 185, 2,2-dimethyl-5-[4-({methyl[2-(methylamino)ethyl]amino}methyl)-1H-pyrazol-3-yl]cyclohexan-1-ol]",< 0.1 µM,0.0352 µM,,
CNCCN(C)Cc1c[nH]nc1C1CCC2(CC1)CN(C)C(=O)N2C (stereo not drawn) [Compound 172],< 0.1 µM,0.0458 µM,,
CNCCN(C)Cc1c[nH]nc1[C@H]1CC[C@@H](OC2CCCCC2)CC1 [Compound 140],< 0.1 µM,0.024 µM,,
CNCCN(C)Cc1c[nH]nc1C1CCC2(CC1)CC(=O)N(Cc1ccc(OC)cc1)C2 (stereo not drawn) [Compound 146],< 0.1 µM,0.0217 µM,,
CNCCN(C)Cc1c[nH]nc1C1CCC(C)CC1 (stereo not drawn) [Compound 149],< 0.1 µM,0.0072 µM,,
CNCCN(C)Cc1c[nH]nc1[C@H]1CC[C@]2(CCN(Cc3ccc(F)cc3)C2=O)CC1 [Compound 123],< 0.1 µM,0.018 µM,,
CNCCN(C)Cc1c[nH]nc1[C@H]1CC[C@H](OCCOc2ccc(OC)cc2)CC1 [Compound 186],0.101 to 1 µM,0.107 µM,,
CN(CCN)Cc1c[nH]nc1CCc1ccccc1 [Compound 9],< 0.1 µM,0.01 µM,,
CNCCN(C)Cc1c[nH]nc1[C@H]1CC[C@H](C(C)C)CC1 [Compound 180],< 0.1 µM,0.0147 µM,,
CNCCN(C)Cc1c[nH]nc1C1CCC2(CC1)C(=O)NC(=O)N2C (stereo not drawn) [Compound 161],< 0.1 µM,0.0729 µM,,
CCC(=O)N(CC1CCOCC1)[C@H]1CC[C@H](c2n[nH]cc2CN(C)CCNC)CC1 [Compound 109],0.101 to 1 µM,0.124 µM,,
CNCCN(C)Cc1c[nH]nc1[C@H]1CC[C@@]2(CCOC2)CC1 [Compound 141],< 0.1 µM,0.023 µM,,
CNCCN(C)Cc1c[nH]nc1C1CCC2(CC1)C(=O)N(C)C(=O)N2C (stereo not drawn) [Compound 171],< 0.1 µM,0.0411 µM,,
CNCCN(C)Cc1c[nH]nc1[C@H]1CC[C@@H](C(C)C)CC1 [Compound 181],< 0.1 µM,0.0279 µM,,
CNCCN(C)Cc1c[nH]nc1[C@H]1CC[C@]2(CCN(Cc3ccccc3)C2=O)CC1 [Compound 128],< 0.1 µM,0.0131 µM,,
CNCCN(C)Cc1c[nH]nc1[C@H]1CC[C@H](OCCOc2ccc(OCCOC)cc2)CC1 [Compound 116],,,< 0.1 µM,0.0187 µM
CCCOC1CC(OCCC)CC(c2n[nH]cc2CN(C)CCNC)C1 (stereo not drawn) [Compound 131],> 10 µM,> 10 µM,,
CNCCN(C)Cc1c[nH]nc1C1CCC2(CC1)NC(=O)N(C)C2=O (stereo not drawn) [Compound 170],< 0.1 µM,0.0578 µM,,
CNCCN(C)Cc1c[nH]nc1C1CCC2(CC1)CNC(=O)C2 (stereo not drawn) [Compound 147],< 0.1 µM,0.0327 µM,,
CNCCN(C)Cc1c[nH]nc1C1CCC2(CCNC2=O)CC1 (stereo not drawn) [Compound 176],< 0.1 µM,0.0364 µM,,
